{"source": "patent US8858963B1", "about": "“Tamper resistant composition comprising hydrocodone and acetaminophen for rapid onset and extended duration of analgesia” (Mallinckrodt LLC, priority 2011, dated 2014)", "origin": "cited, not measured here", "test_system": "hepatic GSH", "details": "Swiss mice"}
{"smiles": "CC(=O)Nc1ccc(O)cc1", "note": "[acetaminophen]", "values": [{"measurement": "onset of circulating hepatic GSH changes after administration", "setting": "acetaminophen 100 mg/kg to 600 mg/kg", "result": "≤ 15", "unit": "min"}, {"measurement": "time of minimum GSH level after injection", "setting": "all dose groups (100 mg/kg to 600 mg/kg)", "result": 2, "unit": "h"}]}
